Bridges are numbered along the chain shown (N, C = ends). Where no end group is shown, it is not given here.
How the values were obtained:
[1] = tested on: CXCR4; test: CXCL12-induced calcium mobilization assay (Fluo-3 AM); format: cell-based, human; conditions: CCRF-CEM cells, 10 µM peptide, percent of fluorescence with CXCL12 alone; at least three experiments
Protocol: For the calcium efflux studies a 2 mg/mL stock solution of Fluo-3 acetoxymethylester (Invitrogen, Carlsbad, CA) in anhydrous DMSO was used. […] CCRF–CEM cells were resuspended in cell loading buffer (PBS, 1% FCS, 1 mmol/L MgCl2, and 1 mmol/L CaCl2) at 5×10^5 cells/mL. Fluo-3AM and Pluronic acid were added to each sample to increase Fluo-3AM solubility and improve dye loading into the cells. Baseline calcium efflux was established, then chemokines were added as indicated and chemokine-induced calcium efflux was measured.
(A) The amount of peptides or AMD3100 bound was assessed indirectly by flow cytometry using the PE-labelled anti-CXCR4 antibody (clone 12G5). Results are expressed as the percent antibody bound. (B) The Ca^2+ influx assay was performed using CCRF-CEM cells and Fluo-3 AM calcium indicator. CCRF-CEM cells were incubated 30 minutes at 37°C with Fluo-3 AM and 15 minutes with AMD3100 (10 µM)/peptides (10 µM) and then treated with CXCL12. Results are expressed as the percent of Fluo-3 AM fluorescence in presence of CXCL12 alone. Each peptide was tested in at least three different experiments. Double tailed T-Test was used for statistical analyses. Differences were considered significant at P<0.05 compared to control. Control (CTRL).

[2] = tested on: PES43 human melanoma cells; test: CXCL12-mediated wound closure assay; format: cell-based; conditions: 6 hours post-wounding
Protocol: (§1) Migration was assayed in 24-well Transwell chambers (Corning Inc., Corning, NY) using inserts with an 8-µm pore membrane. Membranes were precoated with collagen (human collagen type I/III) and fibronectin (20 µg/mL each). […] After 16 h incubation, cells on the upper surface of the filter were removed using a cotton wool swab; migration of cells in migration media alone was compared with migration in media containing CXCL12. The cells were counted in ten different fields (original magnification ×40). The migration index was defined as the ratio between migrating cells in the experimental group and migrated cells in the control group. For the wound closure assay, tested cells were allowed to reach confluence in six-well plates containing serum-depleted growth medium and scratched with pipette tips to make wounds. The wound closure was observed microscopically 6 hours post-wounding (OKO Time Lapse).
Experiments were conducted using PES43 cells. (A) Migration was assayed in 24-well Transwell chambers using inserts with 8-µm pore membrane. […] Migrated cells on the lower surface were fixed, stained with H&E and counted microscopically. The results are expressed as the migration index relative to migration in presence of BSA alone. […] Images were acquired with OKO Time Lapse. […] PES43 cells were serum-starved and incubated with CXCL12 (100 ng/ml) alone or in presence of AMD3100/peptides. Each peptide was tested in at least three different experiments. Double tailed T-Test was used for statistical analyses. Differences were considered significant at P<0.05 compared to control.

[3] = tested on: K7M2 murine osteosarcoma cells; test: K7M2 osteosarcoma lung metastases model; format: in vivo, Balb/c mice; conditions: cells pre-treated 30 min with 10 µM peptide; 10 mg/kg IP daily for 15 days
Protocol: (§2) All mice were obtained from Harlan (Bar Harbor, ME, USA) and their care was in accord with institutional guidelines. Twenty-five 6-8-week-old female C57BL/6 mice were inoculated into the tail vein with 5×10^5 B16–CXCR4 cells pre-treated for 30 minutes with peptide S (10 µM), peptide R (10 µM), peptide I (10 µM), or AMD3100 (10 µM). Six hours later intraperitoneal (IP) treatment started with AMD3100 (1.25 mg/kg) or each peptide (2 mg/kg) in sterile PBS once a day for 10 days. A week later the mice were sacrificed. The experiment was repeated three times. The lung metastases assay was also conducted with K7M2 murine osteosarcoma cells. Twenty-five 6-8-week-old female Balb/c mice were injected via tail vein with 2.5×10^5 K7M2 cells pre-treated for 30 minutes with AMD3100 (10 µM), peptide S (10 µM), peptide R (10 µM), peptide I (10 µM) and animals were treated IP daily for 15 days with 2.5 mg/kg for AMD3100 group and 10 mg/kg for each peptide groups. A week later the mice were sacrificed. Xenograft tumor growth was evaluated using pEGFP-SN12C cells in exponential growth phase subcutaneously injected into the right flank of twenty-five 6-8-week-old female CD1 nude mice. 2×10^6 SN12C-pEGFP were injected in the right flank of each mouse and treated with AMD3100 (1.25 mg/kg) and peptides (2 mg/kg) for 10 days ip. A week later mice were euthanized and tumor volume evaluated through Leica MacroFluo fluorescence stereomicroscope (Leica microsystem, Houston, TX). The experiment was repeated three times. The Istituto Nazionale per lo Studio e la Cura dei Tumori, Fondazione Giovanni Pascale Independent Etical Comettee approved the study (CEI/600/12).
Figure 4 Peptides R, I and S inhibit murine osteosarcoma lung metastases. (A) Twenty-five 6-8-week-old female Balb/c mice were injected via tail vein with 2.5×10^5 K7M2 cells pre-treated for 30 minutes with AMD3100 (10 µM), peptide R (10 µM), or peptide I (10 µM) or peptide S (10 µM). […]

[4] = tested on: SN12C-EGFP renal cancer cells; test: SN12C-pEGFP subcutaneous xenograft tumor growth; format: in vivo, CD1 nude mice; conditions: IP 10 days, peptides 2 mg/kg, AMD3100 1.25 mg/kg; measured a week later by fluorescence stereomicroscope; control 65.97±35.1; average
Protocol: as §2
6 to 8-week-old female CD1 nude mice were injected subcutaneously with 2×10^6 pEGFP-SN12C cells pre-treated with 10 µM AMD3100 or 10 µM of each peptide. Beginning the following day mice were further treated intraperitoneally for 10 days with 1.25 mg/kg AMD3100 or 2 mg/kg of peptides R, I or S. A week later mice were euthanized and tumor volume evaluated directly from the flank of mice using a Leica MacroFluo fluorescence stereomicroscope (Leica microsystem, Houston, TX) (A). The experiments were repeated three times. B. SN12C-PEGFP cells migration toward CXCL12 in the presence of AMD3100 or Peptide R, S and I.

[5] = tested on: SN12C-GFP human renal cancer cells; test: CXCL12-induced SN12C-GFP migration; format: cell-based; conditions: Figure 5
Protocol: as §1
6 to 8-week-old female CD1 nude mice were injected subcutaneously with 2×10^6 pEGFP-SN12C cells pre-treated with 10 µM AMD3100 or 10 µM of each peptide. […] The experiments were repeated three times.

Substance | CXCL12-induced calcium efflux (Fluo-3 AM fluorescence) [1] | CXCL12-mediated wound healing [2] | K7M2 lung metastases [3] | tumor volume of SN12C-GFP xenograft [4] | CXCL12-induced SN12C-GFP migration [5]
Arg-Ala-[Cys-Arg-His-Trp-Cys] (RACRHWC; disulfide 3-7) [Peptide S, CXCL12-mimetic disulfide-cyclic peptide] | 49.75 % of control | delayed | reduced lung metastases | 44.51±26.4 mm^3 | inhibited
[Cys-Trp-His-Arg-Cys] (CWHRC; disulfide 1-5) [Peptide I, v-MIP-II mimetic disulfide-cyclic peptide] | Minimal effect | delayed | reduced lung metastases | 39.19±25.8 mm^3 | inhibited
Arg-Ala-[Cys-Arg-Phe-Phe-Cys] (RACRFFC; disulfide 3-7) [Peptide R, CXCL12-mimetic disulfide-cyclic peptide] | 51.25 % of control | delayed | reduced lung metastases | 47.00±16.88 mm^3 | inhibited
